Assay results taken from US5776945A (priority 1995, dated 1998).

What was measured:
[1] = tested on: Cultured Neurocyte (cerebral cortexes), Glutamic Acid Toxicity; assay: Cultured-Neurocyte Protective Effect against Glutamic Acid Toxicity (LDH leakage); format: cell-based, rat (Wistar, fetal); settings: Rattus norvegicus, Cerebral cortex neuron, 10 mM glutamic acid, 24 hours at 37° C., read-out: ED50 (50% effective dose), neurocyte protective effect against glutamic acid toxicity
Text: It is known that delayed cerebral-neuronal death is induced if blood flow to the brain is transiently stopped by transient ischemia, anoxia, hypoglycemia, or trauma [T. Kirino, Brain Research, 239, 57 (1982).]. The excitatory toxicity of excitatory neurotransmitters, such as glutamic acid, which is excessively released when associated with ischemia is considered as the cause of the neurocyte damage [S. M. Rotherman and J. W. Olney, Trends in Neuroscience, 10, 299 (1987).]. A compound which protects neurocytes from the cytotoxicity of glutamic acid will be promising as a preventive and therapeutic agent for cerebral ischemic diseases, cerebral neurocyte disorder, and dementia. The following method is employed as an in vitro evaluation system of the protective effect.
Under sterilized conditions, fetuses were taken from female Wistar rats 18 to 19 day-pregnant and the brains thereof were obtained by opening their cranial portions. The brains were placed in an ice-cold L-15 medium to microscopically separate the cerebral cortexes. After being cut into small pieces, the cerebral cortexes of approximately 30 rats were suspended in a mixture of 10 ml of a 0.25% trypsin solution and 0.2 ml of a 0.01% DNase solution to be cultured at 37° C. for 30 min. Then, immediately after addition of 2 ml of serum, the resultant was centrifuged at 1,200 rpm for 2 min. to separate a sediment. To the sediment, 7 ml of a DF medium (prepared by addition of 20 nM of transferrin, 5 μg/ml of insulin, 20 nM of progesterone, 60 nM of selenite, 50 U/ml of penicillin, and 50 U/ml of streptomycin to an equivalent admixture of Dulbecco modified Eagle medium and F-12 medium) was added to prepare a cell suspension which was pipetted 20 times using a 10 ml plastic pipette followed by filtration using a nylon mesh (pore size of 43 μm) to obtain isolated cells. The resulting isolated cells were diluted to 6.0×10^5 cells/ml with the DF medium, inoculated in a polylysine-precoated culture plate having 48 wells at 500 μl per well, and cultured at 37° C. in the presence of 5% CO2 for 1 day. The medium was changed with fresh DF medium on the second day, and 10 μl of a 0.5M glutamic acid solution in distilled water is added to each of the wells (the final concentration of the glutamic acid was 10 mM), and the cells were cultured for further 24 hours at 37° C. in the presence of 5% CO2. Each of the subject compounds was dissolved in distilled water, 10% or 100% DMSO, or 10% methanol and then a 5 μl aliquot was added to each well immediately before addition of glutamic acid. The enzymatic activity of lactate dehydrogenase (LDH) which leaked into the medium from the damaged cells was measured as an index of the neurocyte damage. With respect to each of the subject compounds, LDH leakage at the respective concentrations was measured and a dose-response curve was obtained by a modified Cochran-Armitige method to obtain the 50% effective dose (ED50) of each subject compound.

[2] = tested on: Rat Middle Cerebral Artery Occlusion Model; assay: Infarction Suppression Effect in Rat Middle Cerebral Artery Occlusion (MCAO) Model; format: in vivo, rat (Wistar); settings: i.p. 1 hour before occlusion and 1 hour after reopening, infarction volume 4 days after
Text: Remarkable cerebral edema accompanied with severe cerebrovascular lesions appears in the acute stage of human cerebral infarction. […] Corresponding to development of the lesion from the infarction area to surrounding tissues, the patient's life is seriously affected besides motor and mental functional loss in the conditions of the acute stage of cerebral infarction. A middle cerebral artery occlusion (MCAO; Middle Cerebral Artery Occlusion) model in Wistar rats using emboli with threads is well known as an experimental cerebral ischemia model in which clinical potency of a medicine can be accurately evaluated conforming to clinical conditions of human cerebral infarction [J. Koizumi, Japan Journal of Stroke, 8, 1 (1986)]. This MCAO model was employed as an in vivo evaluation system for evaluating the suppression effect of the compounds of the present invention on infarction development and was conducted according to the following method:
Under 1.0% halothane anesthesia induced by ether, the cervical region of each 10-week old rat was excised at center to expose the furcation of the right carotid while paying attention not to damage the vagus nerve. Centering around the furcation of the right carotid, the common carotid and the external carotid were separated from the surrounding tissues, each of them was ligated with 6-0 floss (Eto K.K.), and another floss was wound around the origin of the internal carotid so as to ligate and fix after inserting the embolus into the carotid. The common carotid was then incised to insert the ebolus toward the internal carotid to approximately 15 to 16 mm, and the proximal terminal of a nylon thread of the embolus was ligated and fixed to the internal carotid with the above mentioned floss. Due to the above procedure, the tip of the embolus exceeded the furcation of the middle cerebral artery, entered into the anterior cerebral artery to approximately 1 to 2 mm, and the entrance of the middle cerebral artery was occluded by the embolus body (made of a resin) for 2 hours. To reopen, the embolus with a thread was pulled away so as to restart the blood flow to the middle cerebral artery. Each of the subject compounds was intraperitoneally administered 1 hour before occlusion and 1 hour after reopening. Four days after the occlusion-reopening, each rat was systematically perfused with a saline from the heart and the brain was removed. After cooling each of the obtained brains with iced-water for 5 min., 7 coronary slices, taken at 2.0 mm intervals, of the cerebrum were prepared. Each slice was stained with TTC (triphenyltetrazolium chloride) and fixed with a neutral 5% formalin buffer solution, then the infarction area of the right cerebral hemisphere was measured by an image analyzer (Olympus) so as to evaluate the infraction expressed as a volume (mm3). The resulting infraction volume was compared with that of a control group to calculate the infarction suppression ratio.

[3] = tested on: Acetic Acid-Induced Writhing; assay: Analgesic Activity Test by Acetic Acid-Induced Writhing Method; format: in vivo, mouse (ddY); settings: Mus musculus, sc; subcutaneous, 15 min. before acetic acid; writhings over 10 min.
Method: For this experiment, 5-week old ddY mice were employed. A 0.6% aqueous acetic acid solution was intraperitoneally administered to each of the mice at 0.1 ml/10 g body weight to evaluate the analgesic activity by employing the number of writhing reactions occurring over a 10 min.-period starting from 10 min. after administration as an index. Each of the subject compounds was subcutaneously administered to the back of each mouse 15 min. before the acetic acid administration.

Capsaicin Induced Cough = assay: animal or person; format: in vivo; settings: Rattus norvegicus, ip; read-out: ED50, antitussive effect (dose exhibiting 50% cough suppression ratio)

SMILES	EC50 [1] [nM]	Infarction suppression ratio ([2]; Dose 0.03 mg/kg) [%]	Infarction suppression ratio ([2]; Dose 0.3 mg/kg) [%]	Infarction suppression ratio ([2]; Dose 3 mg/kg) [%]	ED50 [3] [mg/kg]	ED50 (Capsaicin Induced Cough) [mg/kg]
CN(C(=O)CCCCCc1ccccc1)[C@H]1CC[C@H]2CN(CC3CC3)CC[C@]2(c2cccc(O)c2)C1 [Compound 10, (4aS, 8aR)-trans-2-cyclopropylmethyl-4a-(3-hydroxyphenyl)-6α-[N-methyl-(6-phenylhexanoamido)]decahydroisoquinoline]	43	19	21	7	5	–
CN(C(=O)/C=C/c1cccc(C(F)(F)F)c1)[C@@H]1CC[C@@H]2CN(CC3CC3)CC[C@@]2(c2cccc(O)c2)C1 [Compound 9, (4aR, 8aS)-trans-2-cyclopropylmethyl-4a-(3-hydroxyphenyl)-6α-[N-methyl-(3-trifluoromethylcinnamamido)]decahydroisoquinoline]	520	–	28	7	3.11	–
CN(C(=O)/C=C/c1cccc(C(F)(F)F)c1)[C@H]1CC[C@@]2(O)CN(CC3CC3)CC[C@]2(c2cccc(O)c2)C1 (relative stereo) [Compound 12, Trans-2-cyclopropylmethyl-8a-hydroxy-4a-(3-hydroxyphenyl)-6α-[N-methyl-(3-trifluoromethylcinnamamido)]decahydroisoquinoline]	480	–	64	48	1.49	0.00607
CN(C(=O)/C=C/c1cccc(C(F)(F)F)c1)[C@H]1CC[C@H]2CN(CC3CC3)CC[C@]2(c2cccc(O)c2)C1 (relative stereo) [Compound 1, Trans-2-cyclopropylmethyl-4a-(3-hydroxyphenyl)-6α-[N-methyl-(3-trifluoromethylcinnamamido)]decahydroisoquinoline]	–	32	13	23	–	–
O=C(N[C@@H]1CC[C@H]2CN(CCc3ccccc3)CC[C@]2(c2cccc(O)c2)C1)c1ccc2ccccc2c1 (relative stereo) [Compound 24, Trans-2-(2-phenetyl)-4a-(3-hydroxyphenyl)-6β-(2-naphthoamido)decahydroisoquinoline]	–	–	–	–	1.7	–
CN(C(=O)/C=C/c1ccoc1)[C@H]1CC[C@H]2CN(CC3CC3)CC[C@]2(c2cccc(O)c2)C1 (relative stereo) [Compound 25]	–	–	–	–	0.83	–
CC(C)CN(C(=O)CCCCCc1ccccc1)[C@H]1CC[C@H]2CN(CC3CC3)CC[C@]2(c2cccc(O)c2)C1 [Compound 11, (4aS, 8aR)-trans-2-cyclopropylmethyl-4a-(3-hydroxyphenyl)-6α-[N-isobutyl-(6-phenylhexanoamido)]decahydroisoquinoline]	60900	5	–	33	–	–
CC(C)CN(C(=O)CCCCCc1ccccc1)[C@H]1CC[C@@]2(O)CN(CC3CC3)CC[C@]2(c2cccc(O)c2)C1 (relative stereo) [Compound 13, Trans-2-cyclopropylmethyl-8a-hydroxy-4a-(3-hydroxyphenyl)-6α-[N-isobutyl-(6-phenylhexanoamido)]decahydroisoquinoline]	3000	–	–	–	–	–
O=C(N[C@@H]1CC[C@H]2CN(CC3CC3)CC[C@]2(c2cccc(O)c2)C1)c1ccc2ccccc2c1 (relative stereo) [Compound 23, Trans-2-cyclopropylmethyl-4a-(3-hydroxyphenyl)-6β-(2-naphthoamido)decahydroisoquinoline]	92	–	23	–	–	–
CN(C(=O)/C=C/c1cccc(C(F)(F)F)c1)[C@H]1CC[C@H]2CN(CC3CC3)CC[C@]2(c2cccc(O)c2)C1 [Compound 8, (4aS, 8aR)-trans-2-cyclopropylmethyl-4a-(3-hydroxyphenyl)-6α-[N-methyl-(3-trifluoromethylcinnamamido)]decahydroisoquinoline]	–	26	43	32	–	0.00539
O=C(Cc1ccc(Cl)c(Cl)c1)N[C@@H]1CC[C@H]2CN(CC3CC3)CC[C@]2(c2cccc(O)c2)C1 (relative stereo) [Compound 21, Trans-2-cyclopropylmethyl-4a-(3-hydroxyphenyl)-6β-(3,4-dichlorophenylacetamido)decahydroisoquinoline]	12600	–	–	–	–	–
CC(C)CN(C(=O)Cc1ccc(Cl)c(Cl)c1)[C@H]1CC[C@@]2(O)CN(CC3CC3)CC[C@]2(c2cccc(O)c2)C1 (relative stereo) [Compound 14, Trans-2-cyclopropylmethyl-8a-hydroxy-4a-(3-hydroxyphenyl)-6α-[N-isobutyl-(3,4-dichlorophenylacetamido)]decahydroisoquinoline]	1100	–	–	–	5.78	–
